Biological target: VEGFR2 (Homo sapiens (Human), UniProt P35968)
Assay: Inhibitory activity of VEGFR2 kinase (HTRF KinEASE-TK kit)
Type: biochemical
Conditions: for IC50: ATP 5 μM, 20 minutes, room temperature; for IC50 value as fold of that of Comparative compound 2 / IC50 value as fold of that of Sorafenib (free base): ratio of IC50
Method: HTRF®KinEASE™-TK kit (Cat.62TKOPEC, Cisbio);
VEGFR2 (Cat: k2643, Sigma);
2.1 Preparation of VEGFR2 Kinase Reagent
1× kinase buffer: 1 mL 1× kinase buffer contained 200 μL 5× kinase buffer (Invitrogen), 5 μL, 1M MgCl2, 1 μL 1M DTT, 1 μL 1M MnCl2, and 793 μL ddH2O;
5×TK substrate-biotin and ATP working fluid: as the concentrations of TK substrate-biotin and ATP, please refer to Table 1. TK substrate-biotin and ATP were diluted with 1× kinase buffer to 5 folds of the reaction concentrations;
5× kinase working fluid: as the concentration of VEGFR2 kinase, please refer to Table 1. 5× kinase working fluid was prepared with 1× Kinase buffer;
4× Sa-XL665 working fluid: as the concentration of Sa-XL665 (Cisbio) in the reaction, please refer to Table 1. The 4× Sa-XL665 working fluid was prepared with assay buffer (Cisbio);
4×TK Ab-cryptate working fluid: TK Ab-Cryptate (Cisbio) was 100-fold diluted with assay buffer (Cisbio), as working fluid;
Experimental Procedure of HTRF KinEASE TK Kit
After all the reagents were prepared as described above, the reagents except for enzymes were equilibrated to room temperature, then adding samples were performed.
TK substrate-biotin, ATP, VEGFR2 kinase and a compound at a certain concentration were reacted in 1× kinase buffer at room temperature for 20 minutes. […] To all the reaction wells, 5 μl 4× Sa-XL665 working fluid and 5 μl 4×TK Ab-cryptate working fluid were added. After reacting at room temperature for 1 hours, fluorescence signal (excited at 320 nm, emitted at 665 nm, 615 nm) was detected by ENVISION detector (Perkinelmer). Based on the full-active well and the background signal well, the inhibition rate for each well was calculated, and the average value was used for duplicate wells. The half maximal inhibitory concentration (IC50) for each test compound was fitted by professional software Graphpad PRISM 5.0.
2.3 Data Analysis Emission light ratio (ER)=665 nm emission signal/615 nm emission signal Inhibition rate=(ERpositive−ERsample)/(ERpositive−ERnegative)*100%
HTRF KinEASE TK kit was used to determine the IC50 value of a compound for kinase VEGFR2. The final concentration of the compound started from 100 μM, and 4-fold gradient dilution was carried out to provide 10 concentrations. Duplicate wells were used for each concentration. The final concentration of DMSO was controlled to 1% in the reaction system.

Sequence of VEGFR2 (P35968 20-1356): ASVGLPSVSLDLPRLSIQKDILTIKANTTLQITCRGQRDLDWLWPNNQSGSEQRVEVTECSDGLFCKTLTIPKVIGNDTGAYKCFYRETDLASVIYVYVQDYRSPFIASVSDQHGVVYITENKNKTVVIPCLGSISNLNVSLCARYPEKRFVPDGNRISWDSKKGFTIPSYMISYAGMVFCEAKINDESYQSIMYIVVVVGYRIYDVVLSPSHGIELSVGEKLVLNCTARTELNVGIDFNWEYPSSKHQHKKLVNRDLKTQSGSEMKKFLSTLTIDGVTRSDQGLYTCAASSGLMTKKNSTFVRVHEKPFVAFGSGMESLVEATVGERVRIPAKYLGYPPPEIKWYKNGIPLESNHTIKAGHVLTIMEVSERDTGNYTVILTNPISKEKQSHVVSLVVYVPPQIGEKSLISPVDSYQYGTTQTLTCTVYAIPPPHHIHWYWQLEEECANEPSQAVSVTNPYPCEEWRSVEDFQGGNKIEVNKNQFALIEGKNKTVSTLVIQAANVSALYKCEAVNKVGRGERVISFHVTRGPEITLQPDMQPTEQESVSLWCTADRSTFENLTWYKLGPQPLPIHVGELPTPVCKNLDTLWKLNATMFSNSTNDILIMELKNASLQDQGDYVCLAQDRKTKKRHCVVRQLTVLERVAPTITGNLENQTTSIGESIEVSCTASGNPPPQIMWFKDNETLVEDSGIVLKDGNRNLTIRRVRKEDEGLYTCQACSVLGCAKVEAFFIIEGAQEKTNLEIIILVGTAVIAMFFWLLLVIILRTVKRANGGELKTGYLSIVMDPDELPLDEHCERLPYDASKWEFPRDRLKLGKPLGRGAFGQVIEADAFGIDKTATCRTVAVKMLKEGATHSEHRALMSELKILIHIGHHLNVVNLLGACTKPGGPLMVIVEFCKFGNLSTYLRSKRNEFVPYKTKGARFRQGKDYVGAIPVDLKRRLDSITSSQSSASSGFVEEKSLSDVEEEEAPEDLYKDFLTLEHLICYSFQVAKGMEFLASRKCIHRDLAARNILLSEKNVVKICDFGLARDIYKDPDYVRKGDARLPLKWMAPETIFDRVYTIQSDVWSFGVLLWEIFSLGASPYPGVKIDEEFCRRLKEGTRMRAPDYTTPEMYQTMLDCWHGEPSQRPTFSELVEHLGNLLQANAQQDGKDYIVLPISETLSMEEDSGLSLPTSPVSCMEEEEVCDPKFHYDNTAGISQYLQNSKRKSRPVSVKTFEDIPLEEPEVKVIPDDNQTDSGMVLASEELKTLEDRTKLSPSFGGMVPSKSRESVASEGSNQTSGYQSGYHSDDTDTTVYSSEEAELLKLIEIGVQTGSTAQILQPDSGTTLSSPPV

Row | SMILES | IC50 [nM] | inhibitory activity as fold of that of Sorafenib (VEGFR2 kinase) [fold] | IC50 value as fold of that of Comparative compound 2 (VEGFR2 kinase) | IC50 value as fold of that of Sorafenib (free base) (VEGFR2 kinase) [fold] | inhibitory activity as fold of that of Comparative compound 2 (VEGFR2 kinase) [fold]
1 | Cn1cc(-c2cc(Oc3ccc(NC(=O)Nc4ccc(Cl)c(C(F)(F)F)c4)cc3)c(F)cn2)cn1 [Comparative example 3, 1-(4-chloro-3-(trifluoromethyl)phenyl)-3-(4-(2-(1-methyl-pyrazol-4-yl)-5-fluoro-pyridin-4-yl-oxy)phenyl)urea, reference compound] | 437 | – | – | – | –
2 | Cn1cc(-c2cc(Oc3ccc(NC(=O)Nc4ccc(Cl)c(C(F)(F)F)c4)cc3)c(Cl)cn2)cn1 [Comparative example 4, 1-(4-chloro-3-(trifluoromethyl)phenyl)-3-(4-(2-(1-methyl-pyrazol-4-yl)-5-chloro-pyridin-4-yl-oxy)phenyl)urea, reference compound] | 20500 | – | – | – | –
3 | COc1cc(Oc2ccc(NC(=O)Nc3ccc(Cl)c(C(F)(F)F)c3)cc2)cc(-c2cnn(C)c2)n1 [Comparative example 5, 1-(4-chloro-3-(trifluoromethyl)phenyl)-3-(4-(2-(1-methyl-pyrazol-4-yl)-6-methoxy-pyridin-4-yl-oxy)phenyl)urea, reference compound] | 2390 | – | – | – | –
4 | Cc1c(Oc2ccc(NC(=O)Nc3ccc(Cl)c(C(F)(F)F)c3)cc2)ccnc1-c1cnn(C)c1 [Example 5, 1-(4-chloro-3-(trifluoromethyl)phenyl)-3-(4-(3-methyl-2-(1-methyl-pyrazol-4-yl)-pyridin-4-yl-oxy)phenyl)urea] | 317 | – | – | – | –
5 | CNc1c(Oc2ccc(NC(=O)Nc3ccc(Cl)c(C(F)(F)F)c3)cc2)ccnc1-c1cnn(C)c1 [Example 7, 1-(4-chloro-3-(trifluoromethyl)phenyl)-3-(4-(3-methylamino-2-(1-methyl-pyrazol-4-yl)-pyridin-4-yl-oxy)phenyl)urea] | 656 | – | – | – | –
6 | COc1c(Oc2ccc(NC(=O)Nc3ccc(Cl)c(C(F)(F)F)c3)cc2)ccnc1-c1cnn(C)c1 [Example 8, 1-(4-chloro-3-(trifluoromethyl)phenyl)-3-(4-(3-methoxy-2-(1-methyl-pyrazol-4-yl)-pyridin-4-yl-oxy)phenyl)urea] | 417 | – | – | – | –

Now those with a lower IC50, led by results:

Row | IC50 [nM] | inhibitory activity as fold of that of Sorafenib (VEGFR2 kinase) [fold] | IC50 value as fold of that of Comparative compound 2 (VEGFR2 kinase) | IC50 value as fold of that of Sorafenib (free base) (VEGFR2 kinase) [fold] | inhibitory activity as fold of that of Comparative compound 2 (VEGFR2 kinase) [fold] | SMILES
7 | 222 | 1.5 | comparable | 2.5 | – | Cn1cc(-c2nccc(Oc3ccc(NC(=O)Nc4ccc(Cl)c(C(F)(F)F)c4)c(F)c3)c2Cl)cn1 [Example 3, 1-(4-chloro-3-(trifluoromethyl)phenyl)-3-(4-(3-chloro-2-(1-methyl-pyrazol-4-yl)-pyridin-4-yl-oxy)-2-fluorophenyl)urea]
8 | 68.5 | 1.3 | 0.36 fold | 0.75 | 2.7 | Cn1cc(-c2nccc(Oc3ccc(NC(=O)Nc4ccc(Cl)c(C(F)(F)F)c4)cc3)c2C#N)cn1 [Example 4, 1-(4-chloro-3-(trifluoromethyl)phenyl)-3-(4-(3-cyano-2-(1-methyl-pyrazol-4-yl)-pyridin-4-yl-oxy)phenyl)urea]
9 | 215 | – | – | – | – | Cn1cc(-c2nccc(Oc3ccc(NC(=O)Nc4ccc(Cl)c(C(F)(F)F)c4)cc3)c2N)cn1 [Example 6, 1-(4-chloro-3-(trifluoromethyl)phenyl)-3-(4-(3-amino-2-(1-methyl-pyrazol-4-yl)-pyridin-4-yl-oxy)phenyl)urea]
